From patent US6358885B1, “Substituted phenylheterocyclic herbicides” (Mississippi State University, priority 1992, dated 2002)

Tests used:
sorghum [1] = assay: Test B preemergence/postemergence greenhouse plant response rating 0 to 10; format: in vivo, Sorghum bicolor; settings: for Plant response rating, Sorghum: 0 to 10 scale
How it was run: (§1)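 Both application timings were run together: seeds got compound preemergence, and established seedlings (two to eighteen cm) got it postemergence. Non-phytotoxic solvent carried the chemical. Ratings are visual, versus controls, at twelve to sixteen days.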

rice = assay: as above; format: in vivo, Oryza sativa; settings: for Plant response rating, Rice: 0 to 10 scale
How it was run: as §1

wheat = assay: as above; format: in vivo, Triticum aestivum; settings: for Plant response rating, Wheat: 0 to 10 scale
How it was run: as §1

cheatgrass = assay: as above; format: in vivo, Bromus secalinus; settings: for Plant response rating, Cheatgrass: 0 to 10 scale
How it was run: as §1

pigweed = assay: Test C preemergence/postemergence greenhouse plant response rating 0 to 100; format: in vivo, Amaranthusretroflexus; settings: for Plant response rating Pigweed: 0 to 100 scale
How it was run: (§2)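 Compounds in non-phytotoxic solvent applied preemergence to sandy loam one day after planting, postemergence at the 1–4 leaf stage, or to ~2.5 cm floodwater over silt loam.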

blackgrass [2] = assay: as above; format: in vivo, Alopecurus myosuroides; settings: for Plant response rating, Blackgrass: 0 to 100 scale
How it was run: as §2

sugar beet = assay: as above; format: in vivo, Beta vulgaris; settings: for Plant response rating, Sugar beet: 0 to 100 scale
How it was run: as §2

rape = assay: Test B preemergence/postemergence greenhouse plant response rating 0 to 10; format: in vivo, Brassica napus; settings: for Plant response rating, Rape: 0 to 10 scale
How it was run: as §1

barley [3] = assay: Test C preemergence/postemergence greenhouse plant response rating 0 to 100; format: in vivo, Hordeum vulgare; settings: for Plant response rating Barley Igri: 0 to 100 scale
How it was run: as §2

ryegrass = assay: as above; format: in vivo, Lolium multiflorum; settings: for Plant response rating Ryegrass: 0 to 100 scale
How it was run: as §2

barley [4] = assay: Test B preemergence/postemergence greenhouse plant response rating 0 to 10; format: in vivo, Hordeum vulgare; settings: for Plant response rating, Barley: 0 to 10 scale
How it was run: as §1

bedstraw [5] = assay: Test C preemergence/postemergence greenhouse plant response rating 0 to 100; format: in vivo, Galium aparine; settings: for Plant response rating, Bedstraw: 0 to 100 scale
How it was run: as §2

bedstraw [6] = assay: Test B preemergence/postemergence greenhouse plant response rating 0 to 10; format: in vivo, Galium aparine; settings: for Plant response rating, Bedstraw: 0 to 10 scale
How it was run: as §1

cotton = assay: as above; format: in vivo, Gossypium hirsutum; settings: for Plant response rating, Cotton: 0 to 10 scale
How it was run: as §1

blackgrass [7] = assay: as above; format: in vivo, Alopecurus myosuroides; settings: for Plant response rating, Blackgrass: POSTEMERGENCE, 0 to 10 scale
How it was run: as §1

sorghum [8] = assay: Test C preemergence/postemergence greenhouse plant response rating 0 to 100; format: in vivo, Sorghum bicolor; settings: for Plant response rating, Sorghum: 0 to 100 scale
How it was run: as §2

duck salad = assay: Test C flood test plant response rating 0 to 100; format: in vivo, Heteranthera limosa; settings: for Plant response rating Duck salad: flood test species listed under POSTEMERGENCE, 0 to 100 scale
How it was run: as §2

wild buckwheat = assay: Test C preemergence/postemergence greenhouse plant response rating 0 to 100; format: in vivo, Polygonum convolvulus; settings: for Plant response rating, Wild buckwheat: 0 to 100 scale
How it was run: as §2

C#CC(C)Oc1cc(-c2nn3c(c2Br)CCCC3)c(F)cc1Cl (stereo not shown) [Compound 66]
Plant response rating, Sorghum (sorghum [1]; POSTEMERGENCE, Rate 50 g/ha): 5 | Plant response rating, Sorghum (sorghum [1]; PREEMERGENCE, Rate 50 g/ha): 0 | Plant response rating (0 to 10 scale), Sorghum (sorghum [1]; PREEMERGENCE, Rate 200 g/ha): 0 | Plant response rating, Sorghum (sorghum [1]; Rate 200 g/ha, POSTEMERGENCE): 7 | Plant response rating, Rice (rice; POSTEMERGENCE, Rate 50 g/ha): 5 | Plant response rating, Rice (rice; PREEMERGENCE, Rate 50 g/ha): 0 | Plant response rating (0 to 10 scale), Rice (rice; PREEMERGENCE, Rate 200 g/ha): 0 | Plant response rating, Rice (rice; Rate 200 g/ha, POSTEMERGENCE): 6 | Plant response rating, Wheat (wheat; POSTEMERGENCE, Rate 50 g/ha): 5 | Plant response rating, Wheat (wheat; PREEMERGENCE, Rate 50 g/ha): 0 | Plant response rating (0 to 10 scale), Wheat (wheat; PREEMERGENCE, Rate 200 g/ha): 3 | Plant response rating, Wheat (wheat; Rate 200 g/ha, POSTEMERGENCE): 5 | Plant response rating, Cheatgrass (cheatgrass; POSTEMERGENCE, Rate 50 g/ha): 3 | Plant response rating, Cheatgrass (cheatgrass; PREEMERGENCE, Rate 50 g/ha): 1 | Plant response rating (0 to 10 scale), Cheatgrass (cheatgrass; PREEMERGENCE, Rate 200 g/ha): 6 | Plant response rating, Cheatgrass (cheatgrass; Rate 200 g/ha, POSTEMERGENCE): 6 | Plant response rating Pigweed (pigweed; POSTEMERGENCE, 62 g/ha): 100 | Plant response rating Pigweed (pigweed; POSTEMERGENCE, 250 g/ha): 100 | Plant response rating (0 to 100), Pigweed (pigweed; POSTEMERGENCE, Rate 4 g/ha): 30 | Plant response rating Pigweed (pigweed; PREEMERGENCE, 62 g/ha): 100 | Plant response rating Pigweed (pigweed; PREEMERGENCE, 250 g/ha): 100 | Plant response rating (0 to 100), Pigweed (pigweed; PREEMERGENCE, Rate 4 g/ha): 0 | Plant response rating (0 to 100), Pigweed (pigweed; Rate 16 g/ha, POSTEMERGENCE): 100 | Plant response rating (0 to 100), Pigweed (pigweed; Rate 16 g/ha, PREEMERGENCE): 90 | Plant response rating, Blackgrass (blackgrass [2]; POSTEMERGENCE, 62 g/ha): 60 | Plant response rating, Blackgrass (blackgrass [2]; POSTEMERGENCE, 250 g/ha): 80 | Plant response rating (0 to 100), Blackgrass (blackgrass [2]; POSTEMERGENCE, Rate 4 g/ha): 20 | Plant response rating, Blackgrass (blackgrass [2]; PREEMERGENCE, 62 g/ha): 70 | Plant response rating, Blackgrass (blackgrass [2]; PREEMERGENCE, 250 g/ha): 70 | Plant response rating (0 to 100), Blackgrass (blackgrass [2]; PREEMERGENCE, Rate 4 g/ha): 0 | Plant response rating (0 to 100), Blackgrass (blackgrass [2]; Rate 16 g/ha, POSTEMERGENCE): 40 | Plant response rating (0 to 100), Blackgrass (blackgrass [2]; Rate 16 g/ha, PREEMERGENCE): 20 | Plant response rating, Sugar beet (sugar beet; POSTEMERGENCE, 62 g/ha): 100 | Plant response rating, Sugar beet (sugar beet; POSTEMERGENCE, 250 g/ha): 100 | Plant response rating (0 to 100), Sugar beet (sugar beet; POSTEMERGENCE, Rate 4 g/ha): 80 | Plant response rating, Sugar beet (sugar beet; PREEMERGENCE, 250 g/ha): 100 | Plant response rating (0 to 100), Sugar beet (sugar beet; PREEMERGENCE, Rate 4 g/ha): 0 | Plant response rating (0 to 100), Sugar beet (sugar beet; Rate 16 g/ha, POSTEMERGENCE): 100 | Plant response rating (0 to 100), Sugar beet (sugar beet; Rate 16 g/ha, PREEMERGENCE): 50 | Plant response rating, Rape (rape; POSTEMERGENCE, Rate 50 g/ha): 10 | Plant response rating, Rape (rape; PREEMERGENCE, Rate 50 g/ha): 1 | Plant response rating (0 to 10 scale), Rape (rape; PREEMERGENCE, Rate 200 g/ha): 5 | Plant response rating, Rape (rape; Rate 200 g/ha, POSTEMERGENCE): 10 | Plant response rating Barley Igri (barley [3]; POSTEMERGENCE, 62 g/ha): 50 | Plant response rating Barley Igri (barley [3]; POSTEMERGENCE, 250 g/ha): 60 | Plant response rating (0 to 100), Barley Igri (barley [3]; POSTEMERGENCE, Rate 4 g/ha): 30 | Plant response rating Barley Igri (barley [3]; PREEMERGENCE, 62 g/ha): 0 | Plant response rating Barley Igri (barley [3]; PREEMERGENCE, 250 g/ha): 20 | Plant response rating (0 to 100), Barley Igri (barley [3]; PREEMERGENCE, Rate 4 g/ha): 0 | Plant response rating (0 to 100), Barley Igri (barley [3]; Rate 16 g/ha, POSTEMERGENCE): 30 | Plant response rating (0 to 100), Barley Igri (barley [3]; Rate 16 g/ha, PREEMERGENCE): 0 | Plant response rating Ryegrass (ryegrass; POSTEMERGENCE, 62 g/ha): 50 | Plant response rating Ryegrass (ryegrass; POSTEMERGENCE, 250 g/ha): 75 | Plant response rating (0 to 100), Ryegrass (ryegrass; POSTEMERGENCE, Rate 4 g/ha): 10 | Plant response rating Ryegrass (ryegrass; PREEMERGENCE, 62 g/ha): 50 | Plant response rating Ryegrass (ryegrass; PREEMERGENCE, 250 g/ha): 70 | Plant response rating (0 to 100), Ryegrass (ryegrass; PREEMERGENCE, Rate 4 g/ha): 0 | Plant response rating (0 to 100), Ryegrass (ryegrass; Rate 16 g/ha, POSTEMERGENCE): 30 | Plant response rating (0 to 100), Ryegrass (ryegrass; Rate 16 g/ha, PREEMERGENCE): 20 | Plant response rating, Barley (barley [4]; POSTEMERGENCE, Rate 50 g/ha): 5 | Plant response rating, Barley (barley [4]; PREEMERGENCE, Rate 50 g/ha): 0 | Plant response rating (0 to 10 scale), Barley (barley [4]; PREEMERGENCE, Rate 200 g/ha): 2 | Plant response rating, Barley (barley [4]; Rate 200 g/ha, POSTEMERGENCE): 6 | Plant response rating, Bedstraw (bedstraw [5]; POSTEMERGENCE, 62 g/ha): 100 | Plant response rating, Bedstraw (bedstraw [5]; POSTEMERGENCE, 250 g/ha): 100 | Plant response rating (0 to 100), Bedstraw (bedstraw [5]; POSTEMERGENCE, Rate 4 g/ha): 60 | Plant response rating, Bedstraw (bedstraw [5]; PREEMERGENCE, 62 g/ha): 80 | Plant response rating, Bedstraw (bedstraw [5]; PREEMERGENCE, 250 g/ha): 90 | Plant response rating (0 to 100), Bedstraw (bedstraw [5]; PREEMERGENCE, Rate 4 g/ha): 0 | Plant response rating (0 to 100), Bedstraw (bedstraw [5]; Rate 16 g/ha, POSTEMERGENCE): 85 | Plant response rating (0 to 100), Bedstraw (bedstraw [5]; Rate 16 g/ha, PREEMERGENCE): 20 | Plant response rating, Bedstraw (bedstraw [6]; POSTEMERGENCE, Rate 50 g/ha): 10 | Plant response rating, Bedstraw (bedstraw [6]; PREEMERGENCE, Rate 50 g/ha): 9 | Plant response rating (0 to 10 scale), Bedstraw (bedstraw [6]; PREEMERGENCE, Rate 200 g/ha): 10 | Plant response rating, Bedstraw (bedstraw [6]; Rate 200 g/ha, POSTEMERGENCE): 10 | Plant response rating, Cotton (cotton; POSTEMERGENCE, Rate 50 g/ha): 10 | Plant response rating, Cotton (cotton; PREEMERGENCE, Rate 50 g/ha): 0 | Plant response rating (0 to 10 scale), Cotton (cotton; PREEMERGENCE, Rate 200 g/ha): 0 | Plant response rating, Cotton (cotton; Rate 200 g/ha, POSTEMERGENCE): 10 | Plant response rating, Blackgrass (blackgrass [7]; Rate 50 g/ha): 4 | Plant response rating (0 to 10 scale), Blackgrass (blackgrass [7]; PREEMERGENCE, Rate 200 g/ha): 7 | Plant response rating, Blackgrass (blackgrass [7]; Rate 200 g/ha): 6 | Plant response rating, Sorghum (sorghum [8]; POSTEMERGENCE, 62 g/ha): 50 | Plant response rating, Sorghum (sorghum [8]; POSTEMERGENCE, 250 g/ha): 60 | Plant response rating (0 to 100), Sorghum (sorghum [8]; POSTEMERGENCE, Rate 4 g/ha): 30 | Plant response rating, Sorghum (sorghum [8]; PREEMERGENCE, 250 g/ha): 30 | Plant response rating (0 to 100), Sorghum (sorghum [8]; PREEMERGENCE, Rate 4 g/ha): 0 | Plant response rating (0 to 100), Sorghum (sorghum [8]; Rate 16 g/ha, POSTEMERGENCE): 40 | Plant response rating (0 to 100), Sorghum (sorghum [8]; Rate 16 g/ha, PREEMERGENCE): 0 | Plant response rating (0 to 100), Duck salad (duck salad; POSTEMERGENCE section, flood test, Rate 4 g/ha): 0 | Plant response rating (0 to 100), Duck salad (duck salad; Rate 16 g/ha, under POSTEMERGENCE head (flood test species)): 30 | Plant response rating Duck salad (duck salad; 62 g/ha): 75 | Plant response rating Duck salad (duck salad; 250 g/ha): 90 | Plant response rating, Wild buckwheat (wild buckwheat; POSTEMERGENCE, 62 g/ha): 100 | Plant response rating, Wild buckwheat (wild buckwheat; POSTEMERGENCE, 250 g/ha): 100 | Plant response rating (0 to 100), Wild buckwheat (wild buckwheat; POSTEMERGENCE, Rate 4 g/ha): 100 | Plant response rating, Wild buckwheat (wild buckwheat; PREEMERGENCE, 250 g/ha): 100 | Plant response rating (0 to 100), Wild buckwheat (wild buckwheat; PREEMERGENCE, Rate 4 g/ha): 0 | Plant response rating (0 to 100), Wild buckwheat (wild buckwheat; Rate 16 g/ha, POSTEMERGENCE): 100 | Plant response rating (0 to 100), Wild buckwheat (wild buckwheat; Rate 16 g/ha, PREEMERGENCE): 75
